Reference: ChEMBL document CHEMBL1125716, “1,2,4-Triazolo[4,3-a]pyrazine derivatives with human renin inhibitory activity. 3.1 Synthesis and biological properties of aminodeoxystatine and difluorostatone derivatives” (J Med Chem, 1991)

Target: T1, Renin (Homo sapiens, UniProt P00797)
T1 sequence (P00797 whole entry): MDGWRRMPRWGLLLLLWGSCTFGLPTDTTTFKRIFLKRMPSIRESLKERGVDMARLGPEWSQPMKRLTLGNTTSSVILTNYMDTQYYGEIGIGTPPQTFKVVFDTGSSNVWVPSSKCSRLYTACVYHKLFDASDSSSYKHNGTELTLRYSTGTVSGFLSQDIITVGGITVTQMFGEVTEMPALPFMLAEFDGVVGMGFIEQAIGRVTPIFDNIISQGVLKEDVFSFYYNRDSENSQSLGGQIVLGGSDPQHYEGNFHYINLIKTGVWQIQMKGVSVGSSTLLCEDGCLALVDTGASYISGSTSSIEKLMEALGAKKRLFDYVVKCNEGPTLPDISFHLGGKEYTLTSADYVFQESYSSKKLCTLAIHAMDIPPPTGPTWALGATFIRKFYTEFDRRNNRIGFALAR
Assay: Inhibition of human renin

CCCc1nc(-c2cccnc2)cn2c(C(Cc3cccnc3)C(=O)NC(CC3CCCCC3)C(=O)C(F)(F)C(=O)NCCC(C)C)nnc12 (stereo unspecified)
IC50: 1.8 nM

CC(C)CCNC(=O)C(F)(F)C(=O)C(CC1CCCCC1)NC(=O)Cc1nnc2c(CC(C)C)nc(-c3ccccc3)cn12 (stereo unspecified)
IC50: 38 nM

CCCc1nc(-c2cccnc2)cn2c(CC(=O)NC(CC3CCCCC3)C(=O)C(F)(F)C(=O)NCC(C)CC)nnc12 (stereo unspecified)
IC50: 1.7 nM

CC(C)Cc1nc(-c2ccccc2)cn2c(CC(=O)NC(CC3CCCCC3)C(=O)C(F)(F)C(=O)NC(CC(C)C)C(=O)NCc3ccccn3)nnc12 (stereo unspecified)
IC50: 1.9 nM

CCCc1nc(-c2cccnc2)cn2c(CC(=O)NC(CC3CCCCC3)C(=O)C(F)(F)C(=O)NCCC(C)C)nnc12 (stereo unspecified)
IC50: 1.6 nM

CC(C)Cc1nc(-c2ccccc2)cn2c(C(Cc3cccnc3)C(=O)NC(CC(C)CC3CCCCC3)C(O)CC(=O)NC(CC(C)C)C(=O)NCc3cccc(CN)c3)nnc12 (stereo unspecified)
IC50: 1.7 nM

CCCc1nc(-c2cccnc2)cn2c(CC(=O)NC(CC3CCCCC3)C(=O)C(F)(F)C(=O)NCC)nnc12 (stereo unspecified)
IC50: 1.4 nM

CC(C)Cc1nc(-c2ccccc2)cn2c([C@H](Cc3cccnc3)C(=O)N[C@@H](CC3CCCCC3)C(N)CC(=O)NC(CC(C)C)C(=O)NCc3ccccn3)nnc12 (stereo in doubt; 13a)
IC50: 3.9 nM

CC(C)Cc1nc(-c2ccccc2)cn2c([C@H](Cc3cccnc3)C(=O)N[C@@H](CC3CCCCC3)C(N)CC(=O)NC(CC(C)C)C(=O)NCc3ccccn3)nnc12 (stereo in doubt; 13b)
IC50: 100 nM

CC(C)Cc1nc(-c2ccccc2)cn2c([C@@H](Cc3cccnc3)C(=O)N[C@H](CC3CCCCC3)C(N)CC(=O)NC(CC(C)C)C(=O)NCc3ccccn3)nnc12 (stereo in doubt; 13c)
IC50: 6.1 nM

CC(C)Cc1nc(-c2ccccc2)cn2c([C@@H](Cc3cccnc3)C(=O)N[C@H](CC3CCCCC3)C(N)CC(=O)NC(CC(C)C)C(=O)NCc3ccccn3)nnc12 (stereo in doubt; 13d)
IC50: 120 nM
